These results are taken from ChEMBL document CHEMBL5360532, “Current scenario of quinolone hybrids with potential antibacterial activity against ESKAPE pathogens” (Eur J Med Chem, 2023).

Holding throughout (type): functional
One experiment relates to Aspergillus niger. Description: Antifungal activity against Aspergillus niger assessed as fungal growth inhibition by agar cup diffusion assay.
The subject of another experiment is Aspergillus fumigatus. Description: Antifungal activity against Aspergillus fumigatus assessed as fungal growth inhibition by agar cup diffusion assay.
Another experiment has as its system Candida albicans. Briefly: Antifungal activity against Candida albicans assessed as fungal growth inhibition measured after 24 hrs by agar cup diffusion assay.
Experiment [1] has as its system Staphylococcus aureus. Description: Antibacterial activity against Staphylococcus aureus assessed as bacterial growth inhibition measured after 24 hrs by agar cup diffusion assay.
The subject of experiment [2] is Escherichia coli. Briefly: Antibacterial activity against Escherichia coli assessed as bacterial growth inhibition measured after 24 hrs by agar cup diffusion assay.
The subject of experiment [3] is Pseudomonas aeruginosa. Briefly: Antibacterial activity against Pseudomonas aeruginosa assessed as bacterial growth inhibition measured after 24 hrs by agar cup diffusion assay.
The test system of experiment [4] is Staphylococcus aureus. Briefly: Antibacterial activity against Staphylococcus aureus assessed as bacterial growth inhibition by broth microdilution assay. In general terms: Broth dilution looks for growth in wells or tubes with falling amounts of substance.
Experiment [5] deals with Escherichia coli. Description: Antibacterial activity against Escherichia coli assessed as bacterial growth inhibition by broth microdilution assay.
Experiment [6] has as its system Pseudomonas aeruginosa. Briefly: Antibacterial activity against Pseudomonas aeruginosa assessed as bacterial growth inhibition by broth microdilution assay.
Experiment [7] relates to Escherichia coli. Briefly: Potency index, ratio of ampicillin MIC to test compound MIC for antimicrobial activity against Escherichia coli assessed as bacterial growth inhibition by broth microdilution assay.
Experiment [8] has as its system Pseudomonas aeruginosa. Description: Potency index, ratio of ampicillin MIC to test compound MIC for antimicrobial activity against Pseudomonas aeruginosa assessed as bacterial growth inhibition by broth microdilution assay.
The subject of experiment [9] is Staphylococcus aureus. Briefly: Potency index, ratio of ampicillin MIC to test compound MIC for antimicrobial activity against Staphylococcus aureus assessed as bacterial growth inhibition by broth microdilution assay.
Experiment [10] deals with Staphylococcus aureus. Description: Antibacterial activity against methicillin resistant Staphylococcus aureus assessed as bacterial growth inhibition by microdilution assay.
The test system of experiment [11] is Escherichia coli. Description: Antibacterial activity against Escherichia coli ATCC35218 assessed as bacterial growth inhibition measured after 18 to 24 hrs inhibition by broth microdilution assay. Conditions: time 18-24 hrs.
Experiment [12] has as its system Escherichia coli. Description: Antibacterial activity against Escherichia coli assessed as bacterial growth inhibition measured after 18 to 24 hrs by two fold serial dilution assay. Conditions: time 18-24 hrs.
Experiment [13] has as its system Staphylococcus aureus. Description: Antibacterial activity against methicillin sensitive Staphylococcus aureus assessed as bacterial growth inhibition measured after 18 to 24 hrs by two fold serial dilution assay. The note with it: time 18-24 hrs.
The test system of a further experiment is Klebsiella pneumoniae. Briefly: Antibacterial activity against Klebsiella pneumoniae assessed as bacterial growth inhibition measured after 18 to 24 hrs by two fold serial dilution assay. The note with it: time 18-24 hrs.
Experiment [14] has as its system Pseudomonas aeruginosa. Briefly: Antibacterial activity against Pseudomonas aeruginosa assessed as bacterial growth inhibition measured after 18 to 24 hrs by two fold serial dilution assay. Conditions: time 18-24 hrs.
Experiment [15] concerns Staphylococcus aureus. Description: Antibacterial activity against ciprofloxacin resistant Staphylococcus aureus assessed as bacterial growth inhibition by broth microdilution assay.
The test system of experiment [16] is Mycobacterium tuberculosis. Description: Antimycobacterial activity against Mycobacterium tuberculosis H37Rv assessed as zone of inhibition at 50 mg/ml by agar well diffusion assay. The note with it: read-out: IZ. A general note: Agar diffusion results depend on both activity and mobility in agar.
The subject of experiment [17] is Staphylococcus aureus. Briefly: Antibacterial activity against Staphylococcus aureus assessed as zone of inhibition at 50 mg/ml by agar well diffusion assay. The note with it: read-out: IZ.
Experiment [18] has as its system Escherichia coli. Description: Antibacterial activity against Escherichia coli assessed as zone of inhibition at 50 mg/ml by agar well diffusion assay. Conditions: read-out: IZ.
A further experiment relates to Enterococcus faecalis. Description: Antibacterial activity against Enterococcus faecalis assessed as zone of inhibition at 50 mg/ml by agar well diffusion assay. Conditions: read-out: IZ.
A further experiment concerns Streptococcus pneumoniae. Description: Antibacterial activity against Streptococcus pneumoniae assessed as zone of inhibition at 50 mg/ml by agar well diffusion assay. Conditions: read-out: IZ.
In experiment [19] the test system is Mycobacterium tuberculosis. Briefly: Antimycobacterial activity against Mycobacterium tuberculosis H37Rv assessed as bacterial growth inhibition.
The subject of experiment [20] is Staphylococcus aureus. Briefly: Antibacterial activity against methicillin resistant Staphylococcus aureus assessed as bacterial growth inhibition measured after 24 hrs by serial dilution method.
In experiment [21] the test system is Escherichia coli. Briefly: Antibacterial activity against Escherichia coli assessed as bacterial growth inhibition measured after 24 hrs by serial dilution method.
The subject of experiment [22] is Staphylococcus aureus. Description: Antibacterial activity against Staphylococcus aureus ATCC 29213 assessed as bacterial growth inhibition by broth microdilution assay.

The structures appear in SMILES notation. ≈ marks a conversion by molar mass, not a printed value.

With `CC(=O)N1CCN(c2ccc(OCC3COC(Cn4ccnc4)(c4ccc(Cl)cc4Cl)O3)cc2)CC1` (stereo not given) [KETOCONAZOLE], the MIC (as a rule, the smallest concentration in the dilution series that meets the test's criterion for growth inhibition) is 10.8 µg/mL (≈ 20.3 µM) in the experiment on Aspergillus niger, 11.4 µg/mL (≈ 21.5 µM) in the experiment with Aspergillus fumigatus and 2.6 µg/mL (≈ 4.89 µM) in the experiment with Candida albicans.

For the compound `O=C(/C=C/c1ccc(F)cc1)c1ccc(NC(=O)N2CCN(c3cc4c(cc3F)c(=O)c(C(=O)O)cn4C3CC3)CC2)cc1`, the minimal inhibitory concentration (MIC) with Staphylococcus aureus [1] turned out to be 0.53 µg/mL (≈ 0.885 µM); in the experiment with Escherichia coli [2], 0.53 µg/mL (≈ 0.885 µM); in the experiment with Pseudomonas aeruginosa [3] it was 0.53 µg/mL (≈ 0.885 µM); in the experiment on Candida albicans it was 2.03 µg/mL (≈ 3.39 µM).

In the case of `CCn1cc(C(=O)NN2C(=O)/C(=C/C=C/c3ccccc3)SC2=S)c(=O)c2cc(F)ccc21`, the MIC in the experiment on Staphylococcus aureus [4], in the experiment on Escherichia coli [5] and in the experiment with Pseudomonas aeruginosa [6] was < 1 µg/mL throughout. The Ratio with Escherichia coli [7], with Pseudomonas aeruginosa [8] and with Staphylococcus aureus [9] was >10 throughout.

`COP(=O)(OC)C(c1cc(C(C)(C)C)c(O)c(C(C)(C)C)c1)N1CCN(c2cc3c(cc2F)c(=O)c(C(=O)O)cn3C2CC2)CC1` (stereo not given): the MIC in the experiment on Staphylococcus aureus [10] amounted to 0.5 µg/mL.

With `O=C1C(=O)N(Cc2cn(CC(=O)N3CCN(c4cc5c(cc4F)c(=O)c(C(=O)O)cn5C4CC4)CC3)nn2)c2ccc(F)cc21`, the MIC in the experiment with Pseudomonas aeruginosa [6], in the experiment with Escherichia coli [11], in the experiment on Escherichia coli [12], in the experiment with Staphylococcus aureus [13], with Klebsiella pneumoniae and in the experiment on Pseudomonas aeruginosa [14] was ≤ 0.03 µg/mL in each case.

Regarding `CCCCCC(=O)N(CCNCCNc1ccc(CN2CCN(c3cc4c(cc3F)CC(C(=O)O)=CN4C3CC3)CC2)cc1)CCN(CCN(CCN(CCN(CCN(CCN(CCN(CCN(CCN(CCN(CCN(CCN(CCN(CCN(CCN(CCN(CCN(CCN(CCN(CCN(CCN(CCN(CCN(CCN(CCN(CCN(CCN(CCN(CCN(CCN(CCNC(C)=O)C(C)=O)C(C)=O)C(C)=O)C(C)=O)C(C)=O)C(C)=O)C(C)=O)C(C)=O)C(C)=O)C(C)=O)C(C)=O)C(C)=O)C(C)=O)C(C)=O)C(C)=O)C(C)=O)C(C)=O)C(C)=O)C(C)=O)C(C)=O)C(C)=O)C(C)=O)C(C)=O)C(C)=O)C(C)=O)C(C)=O)C(C)=O)C(=O)CCCCC)C(=O)CCCCC)C(=O)CCCCC`, in the experiment on Staphylococcus aureus [15], the MIC was determined as 0.44 µg/mL (≈ 0.129 µM).

For the compound `CCn1cc(-c2nnc(S(=O)(=O)Cc3ccc(OC)cc3)o2)c(=O)c2cc(F)c(N3CCN(C)CC3)cc21`, the zone of inhibition at 50000 µg/mL (in [16]; in the experiment with Staphylococcus aureus [17]; in the experiment on Escherichia coli [18]; with Enterococcus faecalis; in the experiment on Streptococcus pneumoniae) was 26 mm throughout. The MIC in experiment [19] was 16.2 µg/mL (≈ 29.9 µM).

With `COc1c(N2C[C@@H]3CCCN[C@@H]3C2)c(F)cc2c(=O)c(C(=O)O)cn(C3CC3)c12` [MOXIFLOXACIN], the MIC with Staphylococcus aureus [20] and with Escherichia coli [21] was 0.078 µg/mL (≈ 0.194 µM) in each case.

Regarding `COc1ccc2nc(CN3CCN(c4cc5c(cc4F)c(=O)c(C(=O)O)cn5C4CC4)CC3)[nH]c(=O)c2c1`, the minimal inhibitory concentration (MIC) in the experiment with Staphylococcus aureus [22] worked out at 0.031 µg/mL (≈ 0.0597 µM).
